Assay [1] concerns the target T1, mouse Siglec-2-Fc-Avi (CD22) (Mus musculus, UniProt P35329).
T1 construct: made in house
T1 sequence (P35329 22-708 limits assumed): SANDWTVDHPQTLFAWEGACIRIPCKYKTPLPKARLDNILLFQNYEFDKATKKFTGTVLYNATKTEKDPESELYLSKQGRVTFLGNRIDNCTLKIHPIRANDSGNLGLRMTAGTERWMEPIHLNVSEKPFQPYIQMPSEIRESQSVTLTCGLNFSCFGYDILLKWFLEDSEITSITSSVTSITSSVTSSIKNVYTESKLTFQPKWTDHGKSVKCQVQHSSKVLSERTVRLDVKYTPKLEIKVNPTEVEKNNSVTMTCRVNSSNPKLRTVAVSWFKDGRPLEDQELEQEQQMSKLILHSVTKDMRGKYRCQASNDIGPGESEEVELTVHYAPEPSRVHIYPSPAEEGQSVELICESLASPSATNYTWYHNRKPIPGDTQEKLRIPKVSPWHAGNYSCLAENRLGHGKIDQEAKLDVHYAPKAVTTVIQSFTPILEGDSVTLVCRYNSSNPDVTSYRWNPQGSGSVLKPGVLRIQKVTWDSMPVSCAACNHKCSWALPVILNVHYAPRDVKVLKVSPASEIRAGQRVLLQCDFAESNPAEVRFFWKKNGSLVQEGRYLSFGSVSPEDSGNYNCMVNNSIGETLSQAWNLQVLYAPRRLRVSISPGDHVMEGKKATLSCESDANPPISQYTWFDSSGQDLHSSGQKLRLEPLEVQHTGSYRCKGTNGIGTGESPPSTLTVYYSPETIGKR
Nature of the assay: SPR binding affinity to mouse CD22. The settings on record: steady-state analysis. In short, it runs like this: (§1)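 Using a Biacore 8K, compounds were tested against biotinylated CD22 captured after sialidase treatment. The running buffer held 1% DMSO, corrected with a 0.5–2% DMSO series. Affinity was derived by steady-state analysis.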

Assay [2] concerns the target T2, human Siglec-2/CD22 protein (Homo sapiens, UniProt P20273).
T2 construct: purchased Acro Biosystems SI2-H82E3
T2 sequence (P20273 20-847): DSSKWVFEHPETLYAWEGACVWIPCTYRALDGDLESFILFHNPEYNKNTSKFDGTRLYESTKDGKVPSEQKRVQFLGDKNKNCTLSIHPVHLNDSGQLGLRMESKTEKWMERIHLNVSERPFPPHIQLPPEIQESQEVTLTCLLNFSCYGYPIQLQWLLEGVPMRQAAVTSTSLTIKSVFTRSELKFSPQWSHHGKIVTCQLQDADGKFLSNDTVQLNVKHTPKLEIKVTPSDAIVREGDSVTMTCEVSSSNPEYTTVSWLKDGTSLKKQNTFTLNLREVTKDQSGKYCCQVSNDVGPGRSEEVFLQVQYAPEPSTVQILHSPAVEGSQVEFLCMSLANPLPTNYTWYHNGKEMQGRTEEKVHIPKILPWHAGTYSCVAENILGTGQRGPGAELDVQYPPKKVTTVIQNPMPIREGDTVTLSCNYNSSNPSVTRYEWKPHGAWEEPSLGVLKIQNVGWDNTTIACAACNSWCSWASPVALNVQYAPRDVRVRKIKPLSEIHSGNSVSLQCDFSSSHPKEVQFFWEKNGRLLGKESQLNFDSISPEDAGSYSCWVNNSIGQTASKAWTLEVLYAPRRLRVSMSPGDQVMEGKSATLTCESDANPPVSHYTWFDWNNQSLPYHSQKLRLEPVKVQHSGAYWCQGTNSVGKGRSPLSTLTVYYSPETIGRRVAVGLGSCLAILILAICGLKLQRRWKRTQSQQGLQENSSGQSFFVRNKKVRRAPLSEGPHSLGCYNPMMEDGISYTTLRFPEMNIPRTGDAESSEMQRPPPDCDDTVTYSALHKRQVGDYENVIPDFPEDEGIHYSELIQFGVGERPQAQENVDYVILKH
Put plainly: SPR binding affinity to human CD22. As to conditions: steady-state analysis. In short, it runs like this: as §1
In general terms: SPR reads the build-up and loss of mass on a sensor chip optically.

Another assay has as its target cynomolgus Siglec-2/CD22 (Macaca fascicularis, UniProt A0A2K5WCZ6). Nature of the assay: biochemical. The format is binding. As to conditions: SPR, steady-state analysis; read-out: Affinity cyno CD22. In short, it runs like this:
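SPR with desialylated (SialoExo, 4 h, 37° C.) cynomolgus CD22 amine-coupled to a CM5 chip. Running buffer 10 mM HEPES, 150 mM NaCl, 0.05% Tween-20, pH 7.5, 1% DMSO, with solvent correction; 120 s dissociation. Affinities from steady-state analysis.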

Sequence of cynomolgus Siglec-2/CD22 (A0A2K5WCZ6 entry or part of it): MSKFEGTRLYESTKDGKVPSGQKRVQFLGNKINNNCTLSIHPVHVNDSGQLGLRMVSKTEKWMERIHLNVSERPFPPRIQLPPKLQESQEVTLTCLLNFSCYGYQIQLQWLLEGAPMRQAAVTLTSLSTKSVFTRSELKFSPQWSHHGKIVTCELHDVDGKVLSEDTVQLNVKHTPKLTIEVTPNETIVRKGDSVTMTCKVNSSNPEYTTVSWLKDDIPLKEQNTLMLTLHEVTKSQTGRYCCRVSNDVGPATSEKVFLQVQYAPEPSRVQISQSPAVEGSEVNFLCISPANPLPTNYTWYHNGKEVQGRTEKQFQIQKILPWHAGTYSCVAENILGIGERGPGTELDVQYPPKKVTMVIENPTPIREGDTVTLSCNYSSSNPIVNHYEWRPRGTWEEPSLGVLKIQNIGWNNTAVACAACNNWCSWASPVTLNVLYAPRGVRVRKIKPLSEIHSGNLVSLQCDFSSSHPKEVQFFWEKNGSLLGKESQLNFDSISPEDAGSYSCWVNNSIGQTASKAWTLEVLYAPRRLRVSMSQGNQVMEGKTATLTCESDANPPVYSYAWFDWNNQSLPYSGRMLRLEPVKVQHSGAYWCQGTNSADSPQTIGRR

Consider `CC(=O)NCCOCCOCCOCCOCCNC(=O)CCOCCO[C@]1(C(=O)O)C[C@H](O)[C@@H](NC(=O)CO)[C@H]([C@H](O)[C@H](O)CNC(=O)Cc2ccc(Cl)cc2)O1` [Compound 239, (2R,4S,5R,6R)-6-((1R,2R)-3-(2-(4-chlorophenyl)acetamido)-1,2-dihydroxypropyl)-2-((2,19-dioxo-6,9,12,15,22-pentaoxa-3,18-diazatetracosan-24-yl)oxy)-4-hydroxy-5-(2-hydroxyacetamido) tetrahydro-2H-pyran-2-carboxylic acid], for which the Kd (in assay [1]; in assay [2]; on cynomolgus Siglec-2/CD22) was 1000 to 10000 nM in each case.
As for `CC(=O)NCCOCCOCCOCCOCCNc1c(NCCCCCCO[C@]2(C(=O)O)C[C@H](O)[C@@H](NC(=O)CO)[C@H]([C@H](O)[C@H](O)CNC(=O)Cc3ccc(Cl)cc3)O2)c(=O)c1=O` [Compound 240, (2R,4S,5R,6R)-6-((1R,2R)-3-(2-(4-chlorophenyl)acetamido)-1,2-dihydroxypropyl)-2-((6-((3,4-dioxo-2-((2-oxo-6,9,12,15-tetraoxa-3-azaheptadecan-17-yl)amino)cyclobut-1-en-1-yl)amino)hexyl)oxy)-4-hydroxy-5-(2-hydroxyacetamido) tetrahydro-2H-pyran-2-carboxylic acid], the Kd (in assay [1]; in assay [2]; on cynomolgus Siglec-2/CD22) was under 1000 nM in each case.
As to `CC(=O)NCCOCCOCCOCCOCc1cn(CCCCCCO[C@]2(C(=O)O)C[C@H](O)[C@@H](NC(=O)CO)[C@H]([C@H](O)[C@H](O)CNC(=O)Cc3ccc(C(F)F)cc3)O2)nn1` [Compound 252, (2R,4S,5R,6R)-6-((1R,2R)-3-(2-(4-(difluoromethyl)phenyl)acetamido)-1,2-dihydroxypropyl)-4-hydroxy-5-(2-hydroxyacetamido)-2-((6-(4-(15-oxo-2,5,8,11-tetraoxa-14-azahexadecyl)-1H-1,2,3-triazol-1-yl)hexyl)oxy) tetrahydro-2H-pyran-2-carboxylic acid], the Kd in assay [1] is 1000 to 10000 nM; in assay [2] it was under 1000 nM; at cynomolgus Siglec-2/CD22, under 1000 nM.
On to `CC(=O)NCCOCCOCCOCCOCCn1cc(CCCCCCO[C@]2(C(=O)O)C[C@H](O)[C@@H](NC(=O)CO)[C@H]([C@H](O)[C@H](O)CNC(=O)Cc3ccc(C(F)F)cc3)O2)nn1` [Compound 253, (2R,4S,5R,6R)-6-((1R,2R)-3-(2-(4-(difluoromethyl)phenyl)acetamido)-1,2-dihydroxypropyl)-4-hydroxy-5-(2-hydroxyacetamido)-2-((6-(1-(2-oxo-6,9,12,15-tetraoxa-3-azaheptadecan-17-yl)-1H-1,2,3-triazol-4-yl)hexyl)oxy)tetrahydro-2H-pyran-2-carboxylic acid], for which the Kd (in assay [1]; in assay [2]; on cynomolgus Siglec-2/CD22) was under 1000 nM in each case.
Take `CC(=O)NCCOCCOCCOCCOCc1cn(CCCCCCCCO[C@]2(C(=O)O)C[C@H](O)[C@@H](NC(=O)CO)[C@H]([C@H](O)[C@H](O)CNC(=O)Cc3ccc(C(F)F)cc3)O2)nn1` [Compound 259, (2R,4S,5R,6R)-6-((1R,2R)-3-(2-(4-(difluoromethyl)phenyl)acetamido)-1,2-dihydroxypropyl)-4-hydroxy-5-(2-hydroxyacetamido)-2-((8-(4-(15-oxo-2,5,8,11-tetraoxa-14-azahexadecyl)-1H-1,2,3-triazol-1-yl)octyl)oxy)tetrahydro-2H-pyran-2-carboxylic acid]: the Kd (in assay [1]; in assay [2]; on cynomolgus Siglec-2/CD22) was under 1000 nM each time.
For `CC(=O)NCCOCCOCCOCCOCCNC(=O)CCCCCCO[C@]1(C(=O)O)C[C@H](O)[C@@H](NC(=O)CO)[C@H]([C@H](O)[C@H](O)CNC(=O)Cc2ccc(Cl)cc2)O1` [Compound 264, (2R,4S,5R,6R)-6-((1R,2R)-3-(2-(4-chlorophenyl)acetamido)-1,2-dihydroxypropyl)-2-((2,19-dioxo-6,9,12,15-tetraoxa-3,18-diazapentacosan-25-yl)oxy)-4-hydroxy-5-(2-hydroxyacetamido) tetrahydro-2H-pyran-2-carboxylic acid], the Kd in assay [1] was 1000 to 10000 nM; in assay [2] it was under 1000 nM; on cynomolgus Siglec-2/CD22 it was under 1000 nM.
For `CC(=O)NCCOCCOCCOCCOCCC(=O)NCCCCCCO[C@]1(C(=O)O)C[C@H](O)[C@@H](NC(C)=O)[C@H]([C@H](O)[C@H](O)CNC(=O)c2cccc(Cl)c2)O1` [Compound 271, (2R,4S,5R,6R)-5-acetamido-6-((1R,2R)-3-(3-chlorobenzamido)-1,2-dihydroxypropyl)-2-((2,18-dioxo-6,9,12,15-tetraoxa-3,19-diazapentacosan-25-yl)oxy)-4-hydroxytetrahydro-2H-pyran-2-carboxylic acid], the Kd in assay [1] is over 10000 nM; in assay [2], 1000 to 10000 nM; at cynomolgus Siglec-2/CD22, 1000 to 10000 nM.
Consider `CC(=O)NCCOCCOCCOCCOCCn1cc(CCCCCCO[C@]2(C(=O)O)C[C@H](O)[C@@H](NC(C)=O)[C@H]([C@H](O)[C@H](O)CNC(=O)c3cccc(Cl)c3)O2)nn1` [Compound 272, (2R,4S,5R,6R)-5-acetamido-6-((1R,2R)-3-(3-chlorobenzamido)-1,2-dihydroxypropyl)-4-hydroxy-2-((6-(1-(2-oxo-6,9,12,15-tetraoxa-3-azaheptadecan-17-yl)-1H-1,2,3-triazol-4-yl)hexyl)oxy)tetrahydro-2H-pyran-2-carboxylic acid], for which the values for the Kd (in assay [1]; in assay [2]; on cynomolgus Siglec-2/CD22) were over 10000 nM, 1000 to 10000 nM and 1000 to 10000 nM, respectively.
As for `CC(=O)NCCOCCOCCOCCOCCNc1c(NCCCCCCO[C@]2(C(=O)O)C[C@H](O)[C@@H](NC(C)=O)[C@H]([C@H](O)[C@H](O)CNC(=O)c3cccc(Cl)c3)O2)c(=O)c1=O` [Compound 273, (2R,4S,5R,6R)-5-acetamido-6-((1R,2R)-3-(3-chlorobenzamido)-1,2-dihydroxypropyl)-2-((6-((3,4-dioxo-2-((2-oxo-6,9,12,15-tetraoxa-3-azaheptadecan-17-yl)amino)cyclobut-1-en-1-yl)amino)hexyl)oxy)-4-hydroxytetrahydro-2H-pyran-2-carboxylic acid], the Kd in assay [1] was over 10000 nM; in assay [2], 1000 to 10000 nM; at cynomolgus Siglec-2/CD22, 1000 to 10000 nM.
With `CC(=O)NCCOCCOCCOCCOCCC(=O)NCCOCCOCCO[C@]1(C(=O)O)C[C@H](O)[C@@H](NC(C)=O)[C@H]([C@H](O)[C@H](O)CNC(=O)Cc2ccc(Cl)cc2)O1` [Compound 274, (2R,4S,5R,6R)-5-acetamido-6-((1R,2R)-3-(2-(4-chlorophenyl)acetamido)-1,2-dihydroxypropyl)-2-((2,18-dioxo-6,9,12,15,22,25-hexaoxa-3,19-diazaheptacosan-27-yl)oxy)-4-hydroxytetrahydro-2H-pyran-2-carboxylic acid], the Kd (in assay [1]; in assay [2]; at cynomolgus Siglec-2/CD22) was over 10000 nM each time.

The values are drawn from US20250064941A1, “SIGLEC LIGANDS, CONJUGATES, AND METHODS OF USE THEREOF” (Osprey Biopharmaceuticals, Inc., priority 2023, published 2025).
